One data set has as its system HL-60 cells. As to the kind of experiment: Cell differentiation, NBT reduction assay. It counts as cell-based. The conditions noted are these: in comparison with 1α,25(OH)2D3 as control (100% activity); 4 days. Here is the method:
The vitamin D analog of the present invention was evaluated for its effect on cell differentiation. Falcon tissue chambers were seeded with 4×10^4 cells/cm of HL-60 cells using RPMI 1640 medium supplemented with […] FCS and gentamycin (50 μg/mL),in a final cell volume of 5 mL. The cultures were maintained at 37° C. in an atmosphere of humidified air containing 5% CO2. After 24 hours incubation, the control 1αa,25(OH)2D3 and the compound to be tested were each dissolved in ethanol and added to the cell culture with the final concentration being less than 0.2%. After 4 days, the dishes were shaken to lose adherent cells. The cells were then washed twice in RPMI medium, counted, and then assayed for differentiation markers (NBT reduction assay). Superoxide production was measured as NBT reducing activity as described by Ostrem et al. in Proc. Natl. Acad. Sci. USA, (1987) 84: 2610-2614. HL-60 cells at 1×10^6/mL were mixed with an equal volume of freshly prepared solution of phorbol 12-myristate 13-acetate (200 ng/mL) and NBT (2 μg/mL) and incubated for 30 minutes at 37° C. The percentage of cells containing black formazan deposits was determined using a hemacytometer. […]

In a further data set the test system is NMRI mice. Briefly: In vivo determination of calcium levels. The conditions noted are these: for Body Weight / Femur Ca / Serum Ca: 7 consecutive days.
The target of data set [1] is T1, Human Vitamin D Binding Protein (hDBP) (Homo sapiens, UniProt P02774).
T1 sequence (P02774 17-474): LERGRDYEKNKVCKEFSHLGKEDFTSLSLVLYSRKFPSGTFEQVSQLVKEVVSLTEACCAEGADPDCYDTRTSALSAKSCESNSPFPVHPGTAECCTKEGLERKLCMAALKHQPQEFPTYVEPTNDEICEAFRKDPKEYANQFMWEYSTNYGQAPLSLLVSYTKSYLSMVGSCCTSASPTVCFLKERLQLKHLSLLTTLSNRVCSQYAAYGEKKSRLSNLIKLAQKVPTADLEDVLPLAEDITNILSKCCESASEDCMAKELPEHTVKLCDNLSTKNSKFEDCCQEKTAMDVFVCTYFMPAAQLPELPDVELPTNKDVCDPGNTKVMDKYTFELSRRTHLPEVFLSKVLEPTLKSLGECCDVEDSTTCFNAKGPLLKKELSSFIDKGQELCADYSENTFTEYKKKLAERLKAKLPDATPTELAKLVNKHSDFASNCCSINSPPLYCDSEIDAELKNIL
Briefly: Affinity for human vitamin D binding protein, displacement of [3H]1α,25(OH)2D3. The conditions noted are these: relative affinity at 50% displacement of [3H]1α,25(OH)2D3; 1α,25(OH)2D3 assigned 100%; hDBP 0.18 μM, 3 hours at 4° C. Here is the method: The solution was incubated for 3 hours at 4° C. Final phase separation was obtained by adding 0.5 mL of cold dextran-coated charcoal.

For another data set, the system named is MCF-7 cells. As to the kind of experiment: Cell proliferation, [3H]thymidine incorporation. It counts as cell-based. To be noted: in comparison with 1α,25(OH)2D3 as control (100% activity); 72 hours incubation. Here is the method:
The compound of the present invention was evaluated for its effect on cell proliferation. […] The cultures were maintained at 37° C. in an atmosphere of humidified air containing 5% CO2. The MCF-7 cells were seeded at approximately 5×10^3 cells/well in the DMEM modified medium in a 96-well microtiter plate. […] Finally, 1 μCi of [^3H]thymidine was added to each well and the cells were harvested after a further 4 hour incubation period. The cells were harvested with a Packard Harvester and the cell count measured by a Packard Topcount System.

Data set [2] concerns ovariectomized Sprague-Daley rats. As to the kind of experiment: Three-month treatment efficacy in ovariectomized rats. To be noted: oral. It counts as in vivo. The procedure: Efficacy was tested in 6 month old Sprague-Daley rats which were sham-operated or ovariectomized (OVX). Ovariectomized animals were sacrificed after two months as a pre-treatment control group, with remaining animals being treated for three months with vehicle or with (1R,3R)-5-{(E)-(2R,5R)-2-[2-(4-hydroxy-4-methylpentyl)-spiro[4.5]dec-7-ylidene]-ethylidene}-cyclohexane-1,3-diol (at dosages of 0.3, 1,3 or 10 μg/kg/day respectively) by oral administration. At the end of treatment, blood was obtained by cardiac puncture for evaluation of serum calcium levels. Hypercalcemia was identified as a mean value 10% greater than the OVX-vehicle group. Bone efficacy was measured using micro-CT (Scanco μCT 40) evaluation of the vertebral cancellous bone volume compared to either the final OVX-group and/or the pre-treatment OVX group.

Another data set has as its target T2, Vitamin D receptor (VDR) (Sus scrofa, UniProt A3RGC1).
T2 sequence (A3RGC1 1-427): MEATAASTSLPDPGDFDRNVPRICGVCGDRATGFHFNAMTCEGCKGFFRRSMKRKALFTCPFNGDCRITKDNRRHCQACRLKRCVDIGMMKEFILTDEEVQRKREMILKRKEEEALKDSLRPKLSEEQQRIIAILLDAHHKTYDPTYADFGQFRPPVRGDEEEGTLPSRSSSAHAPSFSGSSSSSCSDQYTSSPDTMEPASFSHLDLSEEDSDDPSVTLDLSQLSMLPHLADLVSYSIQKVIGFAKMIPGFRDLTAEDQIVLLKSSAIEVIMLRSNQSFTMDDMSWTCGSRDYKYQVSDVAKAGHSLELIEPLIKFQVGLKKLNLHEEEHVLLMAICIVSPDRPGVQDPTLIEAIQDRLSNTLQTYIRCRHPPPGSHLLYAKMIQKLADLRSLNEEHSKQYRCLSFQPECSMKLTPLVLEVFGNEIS
To be noted: relative affinity at 50% displacement of [3H]1α,25(OH)2D3; 1α,25(OH)2D3 assigned 100%; porcine intestinal mucosa supernatant, 4° C., 20 hours. Background: Displacement assays read how much labelled ligand stays bound in the presence of the test substance.

Experimental for NMRI mice: Eight week old, male NMRI mice were obtained from the Animal Center of Leuven (Belgium) and fed a vitamin D-replete diet (0.2% calcium, 1% phosphate, 2000 U vitamin D/kg; Hope Farms, Woerden, The Netherlands). […] The control group was injected with vehicle (arachis oil). […] The following parameters were evaluated: serum calcium and femur calcium. Serum calcium was measured by a microcolorimetric assay (Sigma, St. Louis, Mo.). Femurs were removed and femur calcium content was measured in HCl-dissolved bone ash (obtained by heating for 24 hours in an oven at 100° C.), using the same technique as for serum calcium.

As for `C=C1/C(=C\C=C2/CCC[C@]3(C)[C@@H]([C@H](C)CCCC(C)(C)O)CC[C@@H]23)C[C@@H](O)C[C@@H]1O` [1α,25(OH)2D3, 1α,25-dihydroxyvitamin D3], the “HL-60 cell differentiation, percentage activity (at 50% of the dose response)” value in the data set on HL-60 cells came to 100%. In the data set with NMRI mice (0.1 μg/kg/day i.p.), the “Body Weight” value is listed as 30.5 g, the “Femur Ca” value was 10.9 mg and the “Serum Ca” value worked out at 13.3 mg/dL. Further, in the data set on NMRI mice (0.2 μg/kg/day i.p.), the “Body Weight” value stood at 27.8 g, the “Femur Ca” value was 10.3 mg and the “Serum Ca” value was determined as 14.1 mg/dL. In the data set on NMRI mice (0.4 μg/kg/day i.p.), the “Body Weight” value was determined as 23.2 g, the “Femur Ca” value is on record as 8.9 mg and the “Serum Ca” value was 18.2 mg/dL. In addition, the “estimated serum calcium level as compared with 1α,25(OH)2D3” value in the data set on NMRI mice (1α,25(OH)2D3 assigned a value of 100%, i.p., 7 days) is 100%.

Take `CC(C)(O)CCC[C@@H]1CC[C@]2(CCC/C(=C\C=C3C[C@@H](O)C[C@H](O)C3)C2)C1` [(1R,3R)-5-{(E)-(2R, 5R)-2-[2-(4-hydroxy-4-methylpentyl)-spiro[4.5]dec-7-ylidene]-ethylidene}-cyclohexane-1,3-diol]: the “% hDBP binding” value in data set [1] is reported as 3%. The “MCF-7 cell proliferation, percentage activity (at 50% of the dose response)” value in the data set on MCF-7 cells stood at 450%. Further, the “HL-60 cell differentiation, percentage activity (at 50% of the dose response)” value with HL-60 cells is on record as 200%. Besides, the “Femur Ca” value is given as 10.1 mg with NMRI mice (0.4 μg/kg/day i.p.), 11.3 mg with NMRI mice (5 μg/kg/day i.p.) and 12.3 mg with NMRI mice (10 μg/kg/day i.p.). The “vertebral cancellous bone volume (micro-CT)” value in data set [2] (OVX rats, three months, 0.3, 1,3 or 10 μg/kg/day, vs pre-treatment and final OVX groups) was “significantly increase vertebral bone volume above pre-treatment and final OVX groups”. Also, the “hypercalcemia (mean serum calcium 10% greater than OVX-vehicle group)” value in data set [2] (three months, at doses that increased vertebral bone volume) was “did not induce hypercalcemia”. The “% VDR binding” value at Vitamin D receptor (VDR) amounted to 10%.

These data come from patent publication US20060135491A1, “Vitamin D3 analog useful for the treatment of osteoporosis” (priority 2004, published 2006).
